Like-named read-outs stand apart in the source and are kept apart here.

Results on seven compounds are retold here after patent US20090159876A1, “ORGANIC SEMICONDUCTOR MATERIAL AND ORGANIC FIELD EFFECT TRANSISTOR” (MITSUBISHI CHEMICAL CORPORATION, priority 2005, published 2009).

Series [1] can be described thus: Evaluation of ionization potential of film by photoelectron spectrometer. It counts as physicochemical. Particulars: film spin-coated from chloroform on quartz substrate (α-6T: film deposited under vacuum); solid state. How it is done:
The ionization potential is preferably determined by the method of measuring a sample in a solid state through photoelectron spectroscopy. Examples of the simple devices include a photoelectron spectrometer, model AC-1 (or its successor device) available from Riken Keiki Co., Ltd.
The oligothiophene A (hexamer) (50 mg) prepared in Synthesis 4 was dissolved in chloroform (1 mL) to prepare a solution. This solution was spin-coated on a 2.5 by 2.5 cm^2 quartz substrate available from Furuuchi Chemical Corporation at 1000 rpm. A satisfactory film was produced. The ionization potential (Ip) of this film was determined with a photoelectron spectrometer Model PCR-101 available from Sumitomo Heavy Industries Advanced Machinery. As a reference, an α-6T film deposited on a quartz substrate under vacuum was used (See Comparative Example 1 described below). FIG. 4 is a graph of the ionization potentials observed. The ionization potential (Ip) of the oligothiophene A (hexamer) was 5.34 eV, while that of α-6T was 4.7 eV.

A short description of series [2]: Evaluation of crystallinity of film by X-ray diffractometry. Particulars: for Crystallinity of Film: In-Plane X-ray diffractometry of film. Type of series: physicochemical. How it is done:
X-ray diffractometry was conducted for the oligothiophene film formed of the oligothiophene A (hexamer) prepared in [Evaluation of Ionization Potential] using a RINT-2000/PC available from Rigaku Corporation.

Series [3] is described as follows: Evaluation of solubility in specific solvents at 30° C. Type of series: physicochemical. How it is done:
The oligothiophene A (hexamer) was dissolved in each of toluene, xylene, ethylbenzene, mesitylene, cyclopentanone, cyclohexanone, methyl chloride, carbon tetrachloride, chlorobenzene, dichlorobenzene, trichlorobenzene, nitrobenzene, methyl ethyl ketone, benzoic acid esters, anisole, phenetole, butyl phenyl ether, methoxytoluene, and benzyl ethyl ether at 30° C., and each solubility was determined. […] In Table 1, the mark o indicates the case where the solubilities of 0.1% by weight and 0.3% by weight for each solvent were observed, and the mark X indicates the other case.

For series [4] the following is noted: usual value of representative thiophene materials; cited from earlier work.
The mark [5] stands for this setting: 30° C., toluene, xylene, ethylbenzene, mesitylene, cyclopentanone, cyclohexanone and other listed solvents.

`CCCCCCc1ccc(-c2ccc(-c3ccc(-c4sc(-c5cc(-c6ccc(CC)cc6)c(-c6ccc(-c7ccc(-c8ccc(CCCCCC)s8)s7)s6)s5)cc4-c4ccc(CC)cc4)s3)s2)s1` [Example 2]: in series [1], the “Ionization Potential” value is recorded as 5.24 eV. Further, the “Crystallinity of Film” value in series [2] was “◯”. For the same compound, in series [3], the “Solubility in Specific Solvents 0.1% by weight” value was “◯” and the “Solubility in Specific Solvents 0.3% by weight” value is “◯”.
Consider `CCCCCCc1ccc(-c2ccc(-c3ccc(-c4ccc(-c5sc(-c6ccc(CCCCCC)s6)cc5-c5ccc(CC)cc5)s4)s3)s2)s1` [Example 5], for which, in series [1], the “Ionization Potential” value is recorded as 5.24 eV. Moreover, in series [2], the “Crystallinity of Film” value was “◯”. Further, in series [3], the “Solubility in Specific Solvents 0.1% by weight” value was “◯” and the “Solubility in Specific Solvents 0.3% by weight” value is “◯”.
`CCCCCCc1ccc(-c2ccc(-c3sc(-c4cc(-c5ccc(CC)cc5)c(-c5ccc(-c6ccc(CCCCCC)s6)s5)s4)cc3-c3ccc(CC)cc3)s2)s1` [Example 1]: in series [1], the “Ionization Potential” value is reported as 5.34 eV. In series [2], the “Crystallinity of Film” value is listed as “◯”. Further, the “Crystallinity of film (in words)” value in series [2] (In-Plane X-ray diffractometry of spin-coated film) was “crystalline semiconductor layer”. For the same compound, in series [3] (setting [5]), the “Solubility in Specific Solvents 0.1% by weight” value is “◯” and the “Solubility in Specific Solvents 0.3% by weight” value was “◯”.
In the case of `CCCCCCc1ccc(-c2ccc(-c3ccc(-c4ccc(-c5ccc(-c6sc(-c7cc(-c8ccc(CC)cc8)c(-c8ccc(-c9ccc(-c%10ccc(-c%11ccc(-c%12ccc(CCCCCC)s%12)s%11)s%10)s9)s8)s7)cc6-c6ccc(CC)cc6)s5)s4)s3)s2)s1` [Example 6], in series [1], the “Ionization Potential” value stood at 5.18 eV. Also, the “Crystallinity of Film” value in series [2] was “◯”. In addition, in series [3] (setting [5]), the “Solubility in Specific Solvents 0.1% by weight” value is “◯” and the “Solubility in Specific Solvents 0.3% by weight” value is “◯”.
Consider `CCCCCCc1ccc(-c2cc(-c3ccc(CC)cc3)c(-c3ccc(-c4ccc(-c5ccc(-c6sc(-c7cc(-c8ccc(CC)cc8)c(-c8ccc(-c9ccc(-c%10ccc(-c%11sc(-c%12ccc(CCCCCC)s%12)cc%11-c%11ccc(CC)cc%11)s%10)s9)s8)s7)cc6-c6ccc(CC)cc6)s5)s4)s3)s2)s1` [Example 7], for which the “Ionization Potential” value in series [1] is 5.46 eV. In series [2], the “Crystallinity of Film” value was “◯”. Also, in series [3], the “Solubility in Specific Solvents 0.1% by weight” value is “◯” and the “Solubility in Specific Solvents 0.3% by weight” value is reported as “◯”.
With `CCCCCCc1ccc(-c2ccc(-c3ccc(-c4ccc(-c5sc(-c6cc(-c7ccc(CC)cc7)c(-c7ccc(-c8ccc(-c9ccc(-c%10ccc(CCCCCC)s%10)s9)s8)s7)s6)cc5-c5ccc(CC)cc5)s4)s3)s2)s1` [Example 3], the “Ionization Potential” value in series [1] is 5.26 eV. Also, the “Crystallinity of Film” value in series [2] is listed as “◯”. In series [3], the “Solubility in Specific Solvents 0.1% by weight” value is given as “◯” and the “Solubility in Specific Solvents 0.3% by weight” value is “◯”.
For the compound `c1csc(-c2ccc(-c3ccc(-c4ccc(-c5ccc(-c6cccs6)s5)s4)s3)s2)c1` [α-6T, α-sezithiophene, reference compound], the “Ionization Potential” value in series [1] is given as 4.7 eV. The “Crystallinity of Film” value in series [2] is on record as “◯”. Besides, in series [3], the “Solubility in Specific Solvents 0.1% by weight” value is listed as “◯” and the “Solubility in Specific Solvents 0.3% by weight” value was “◯”. Also, in series [4], the “ionization potential (Ip)” value is on record as “about 4.7 eV”.
